Results published in patent US10590113B2, “6-hydroxy-4-oxo-1,4-dihydropyrimidine-5-carboxamides as APJ agonists” (priority 2016, dated 2020).
Where two headings read alike, the source gives them in different places.

Molecular target: T1, human APJ receptor (Homo sapiens, UniProt P35414)
T1 construct: expressed in transfected cells; host or cells: HEK293
T1 sequence (P35414 1-380): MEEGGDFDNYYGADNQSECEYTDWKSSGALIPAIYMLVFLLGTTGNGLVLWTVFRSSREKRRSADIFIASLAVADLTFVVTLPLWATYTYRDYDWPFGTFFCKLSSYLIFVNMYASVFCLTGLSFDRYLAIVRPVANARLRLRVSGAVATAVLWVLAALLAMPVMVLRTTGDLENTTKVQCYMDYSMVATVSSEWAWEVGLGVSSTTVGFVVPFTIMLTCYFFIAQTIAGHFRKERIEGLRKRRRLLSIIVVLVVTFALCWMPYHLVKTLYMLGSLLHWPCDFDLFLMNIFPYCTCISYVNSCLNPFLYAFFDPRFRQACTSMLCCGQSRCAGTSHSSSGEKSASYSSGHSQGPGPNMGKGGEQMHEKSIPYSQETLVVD
Test: Intracellular cAMP Accumulation Assay (APJ hcAMP, HTRF)
Type: cell-based
Conditions: read-out: hAPJ cAMP EC50 Potency range
In short: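 Stably transfected HEK293 cells (5,000/well) incubated 30 min at room temperature with serially diluted compound, […] and 2 μM forskolin. cAMP measured by HTRF after 60 min with detection reagents, quantified against a cAMP standard curve; EC50 from variable-slope sigmoidal fit of inhibition of forskolin-stimulated cAMP.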

[1] = human APJ, intracellular cAMP accumulation
[2] = human APJ, cAMP accumulation, potency range class

Row | Structure (SMILES) | EC50 [1] [nM] | other results
1 | CCCCc1nc(=O)c(C(=O)N2CC[C@@H](c3ccccc3)C2)c(O)n1[C@@H](C)c1ccccc1OC [Example 151, 2-butyl-6-hydroxy-3-[(1S)-1-(2-methoxypheny)ethyl]-5-[(3S)-3-phenylpyrrolidine-1-carbonyl]-3,4-dihydropyrimidin-4-one] | 10 to 100 | –
2 | CCOCc1nc(=O)c(C(=O)N2CCC(c3cccnc3)C2)c(O)n1-c1c(OC)cccc1OC (single isomer, unassigned) [Example 82, 1-(2,6-dimethoxyphenyl)-2-(ethoxymethyl)-6-hydroxy-5-[3-(pyridin-3-yl)pyrrolidine-1-carbonyl]-1,4-dihydropyrimidin-4-one] | 0.01 to 10 | –
3 | CCCCc1nc(=O)c(C(=O)N2Cc3ccc(C#N)cc3C2)c(O)n1-c1c(OC)cccc1OC [Example 65, 2-[2-butyl-1-(2,6-dimethoxyphenyl)-6-hydroxy-4-oxo-1,4-dihydropyrimidine-5-carbonyl]-2,3-dihydro-1H-isoindole-5-carbonitrile] | 0.01 to 10 | –
4 | CCOCc1nc(=O)c(C(=O)N2CCC(c3c(F)cccc3F)C2)c(O)n1-c1c(OC)cccc1OC (single isomer, unassigned) [Example 353, 5-[3-(2,6-difluorophenyl)pyrrolidine-1-carbonyl]-1-(2,6-dimethoxyphenyl)-2-(ethoxymethyl)-6-hydroxy-1,4-dihydropyrimidin-4-one] | – | EC50 [2]: 0.01 to 10 nM
5 | CCCCc1nc(=O)c(C(=O)N2CC[C@H](c3ccccc3)C2)c(O)n1[C@@H](C)c1cccc(OC)c1 [Example 139, 2-butyl-6-hydroxy-3-[(1S)-1-(3-methoxyphenyl)ethyl]-5-[(3R)-3-phenylpyrrolidine-1-carbonyl]-3,4-dihydropyrimidin-4-one] | 10 to 100 | –
6 | CC[C@@H](c1ccccc1)n1c(-c2nc(C)cs2)nc(=O)c(C(=O)N2CCC(c3ncc(F)cc3F)C2)c1O (single isomer, unassigned) [Example 321] | – | EC50 [2]: 0.01 to 10 nM
7 | CCCCc1nc(=O)c(C(=O)N2CCC(Oc3ccccc3Cl)CC2)c(O)n1-c1c(OC)cccc1OC [Example 382, 2-butyl-5-(4-(2-chlorophenoxy)piperidine-1-carbonyl)-1-(2,6-dimethoxyphenyl)-6-hydroxypyrimidin-4(1H)-one] | – | EC50: 0.01 to 10 nM
8 | COc1cccc(OC)c1-n1c(COC(C)C)nc(=O)c(C(=O)N2CCC(c3c(F)cccc3F)C2)c1O (single isomer, unassigned) [Example 164, 5-[3-(2,6-difluorophenyl)pyrrolidine-1-carbonyl]-1-(2,6-dimethoxyphenyl)-6-hydroxy-2-[(propan-2-yloxy)methyl]-1,4-dihydropyrimidin-4-one] | 0.01 to 10 | –
9 | CCCCc1nc(=O)c(C(=O)N2CC[C@@H](c3ccccc3)C2)c(O)n1C(C)c1ccccc1Cl (stereo partly drawn) [Example 133, 2-butyl-3-[1-(2-chlorophenyl)ethyl]-6-hydroxy-5-[(3S)-3-phenylpyrrolidine-1-carbonyl]-3,4-dihydropyrimidin-4-one] | 10 to 100 | –
10 | CCCCc1nc(=O)c(C(=O)N2CCC(c3ccccc3C#N)C2)c(O)n1-c1c(OC)cccc1OC (single isomer, unassigned) [Example 365, 2-(1-(2-butyl-1-(2,6-dimethoxyphenyl)-6-hydroxy-4-oxo-1,4-dihydropyrimidine-5-carbonyl)pyrrolidin-3-yl)benzonitrile] | – | EC50 [2]: 0.01 to 10 nM
11 | COc1cccc(OC)c1-n1c(-c2cccc(C)n2)nc(=O)c(C(=O)N2CCC(c3ccccc3F)C2)c1O (single isomer, unassigned) [Example 236, 1-(2,6-dimethoxyphenyl)-5-[3-(2-fluorophenyl)pyrrolidine-1-carbonyl]-6-hydroxy-2-(6-methylpyridin-2-yl)-1,4-dihydropyrimidin-4-one] | – | EC50 [2]: 0.01 to 10 nM
12 | COc1cccc(OC)c1-n1c(COC2CC2)nc(=O)c(C(=O)N2CCC(c3ccc(F)cc3)C2)c1O (single isomer, unassigned) [Example 103, 2-(cyclopropoxymethyl)-1-(2,6-dimethoxyphenyl)-5-[3-(4-fluorophenyl)pyrrolidine-1-carbonyl]-6-hydroxy-1,4-dihydropyrimidin-4-one] | 0.01 to 10 | –
13 | CCCCc1nc(=O)c(C(=O)N2CCC(Oc3cc(F)ccc3Cl)CC2)c(O)n1-c1c(OC)cccc1OC [Example 385, 2-butyl-5-(4-(2-chloro-5-fluorophenoxy)piperidine-1-carbonyl)-1-(2,6-dimethoxyphenyl)-6-hydroxypyrimidin-4(1H)-one] | – | EC50: 0.01 to 10 nM
14 | COc1cccc(OC)c1-n1c(-c2ccc(F)cc2)nc(=O)c(C(=O)N2CCC(c3ccc(Cl)cc3)C2)c1O (single isomer, unassigned) [Example 223] | – | EC50 [2]: 10 to 100 nM
15 | CCc1cccc(CC)c1-n1c(-c2ccn(C)n2)nc(=O)c(C(=O)N2CC[C@@H](c3ccccc3)C2)c1O [Example 285, 1-(2,6-diethylphenyl)-6-hydroxy-2-(1-methyl-1H-pyrazol-3-yl)-5-[(3S)-3-phenylpyrrolidine-1-carbonyl]-1,4-dihydropyrimidin-4-one] | – | EC50 [2]: 0.01 to 10 nM
16 | CCCCc1nc(=O)c(C(=O)N2CC[C@@H](c3ccccc3)C2)c(O)n1C(C)c1ccccc1 (stereo partly drawn) [Example 136, 2-butyl-6-hydroxy-3-(1-phenylethyl)-5-[(3S)-3-phenylpyrrolidine-1-carbonyl]-3,4-dihydropyrimidin-4-one] | 10 to 100 | –

Further lines, with some results ahead:

Row | EC50 [1] [nM] | Structure (SMILES) | other results
17 | 0.01 to 10 | CC[C@@H](c1cc(F)cc(F)c1)n1c(-c2ccn(CC)n2)nc(=O)c(C(=O)N2CCC(c3ccc(Cl)cn3)C2)c1O (single isomer, unassigned) [Example 213] | –
18 | 0.01 to 10 | COc1cccc(OC)c1-n1c(COC(C)C)nc(=O)c(C(=O)N2CCC(c3ccc(C#N)cc3)C2)c1O (single isomer, unassigned) [Example 108, 4-{1-[1-(2,6-dimethoxyphenyl)-6-hydroxy-4-oxo-2-[(propan-2-yloxy)methyl]-1,4-dihydropyrimidine-5-carbonyl]pyrrolidin-3-yl}benzonitrile] | –
19 | 10 to 100 | CCCCc1nc(=O)c(C(=O)N2CC[C@@H](c3ccccc3)C2)c(O)n1C(C)c1cccnc1 (stereo partly drawn) [Example 146, 2-butyl-6-hydroxy-5-[(3S)-3-phenylpyrrolidine-1-carbonyl]-3-[1-(pyridin-3-yl)ethyl]-3,4-dihydropyrimidin-4-one] | –
20 | 0.01 to 10 | COc1cccc(OC)c1-n1c(CCC(C)C)nc(=O)c(C(=O)N2CC[C@H](c3ccccc3)C2)c1O [Example 14, (R)-1-(2,6-dimethoxyphenyl)-6-hydroxy-2-isopentyl-5-(3-phenylpyrrolidine-1-carbonyl)pyrimidin-4(1H)-one] | –
21 | 0.01 to 10 | COc1cccc(OC)c1-n1c(COC(C)C)nc(=O)c(C(=O)N2CCC(c3ccccc3C)C2)c1O (single isomer, unassigned) [Example 105, 1-(2,6-dimethoxyphenyl)-6-hydroxy-5-[3-(2-methylphenyl)pyrrolidine-1-carbonyl]-2-[(propan-2-yloxy)methyl]-1,4-dihydropyrimidin-4-one] | –
22 | 0.01 to 10 | CC[C@@H](c1cc(F)cc(F)c1)n1c(-c2cnn(C)c2)nc(=O)c(C(=O)N2CCC(c3ccc(Cl)cn3)C2)c1O (single isomer, unassigned) [Example 187] | –
23 | 0.01 to 10 | COc1cccc(OC)c1-n1c(COC(C)C)nc(=O)c(C(=O)N2CCC(c3ccc(F)cc3)C2)c1O (single isomer, unassigned) [Example 94, 1-(2,6-dimethoxyphenyl)-5-[3-(4-fluorophenyl)pyrrolidine-1-carbonyl]-6-hydroxy-2-[(propan-2-yloxy)methyl]-1,4-dihydropyrimidin-4-one] | –
